{"source": "patent US20120328711A1", "about": "“Antimicrobial system for selective, site-activated binding at target sites” (priority 2011, published 2012)", "experiment": "Peroxide retention after desiccation and rehydration (peroxide check strips)", "type": "physicochemical", "settings": "1 g-10 g extract in 20 ml 35% hydrogen peroxide, heated at 80° C., desiccated to 5 ml, rehydrated; colorimetric strips", "data": [{"smiles": "Oc1ccc(C=Cc2cc(O)cc(O)c2)cc1", "note": "[resveratrol, Resveratrol]", "values": [{"measurement": "peroxide retention capability", "result": "relatively less ability to form stable perhydrates"}]}]}
